Consider 28 compounds from US8912202B2, “N-(benzimimdazol-2-yl)-cyclopropane carboxamides as lysophosphatidic acid antagonists” (Merck Patent GmbH, priority 2011, dated 2014).

In this experiment the target is T1, LPA2R (Homo sapiens, UniProt Q9HBW0).
T1 construct: expressed in transfected cells; host or cells: U2OS
Description: LPA2R-Calciumflux assay (FLIPR, intracellular calcium mobilisation after LPA). It counts as cell-based. The note with it: U2OS cells recombinant expressing LPA2R; antagonism of LPA-induced calcium flux; racemate of the two trans enantiomers unless marked enantiomer. An excerpt: The assay detects intra cellular calcium which is generated by cells upon activation of the LPA2 receptor by its ligand LPA. This transient calcium mobilization can be monitored using a commercial calcium detection kit (e.g. from Molecular Devices). The main component of such a kit is a dye, which becomes fluorescent when calcium is present—a transient fluorescence signal after addition of a ligand to a test well are the result. Readers like the FLIPR (Molecular Devices) can be used to monitor such transient “Ca-flux” signals.
The signals are calculated according to peak maximum minus base line.
Compounds which are antagonists of LPA lead to a decreased mobilisation of intracellular calcium and thus to a lower signal. The assay is performed in microplates (384 wells per plate).
LPA2R-Calciumflux Assay Protocol
The assay is run according to the following procedure:
50 uL seed cells (10000 cells/well in DMEM buffer)
• Incubate 24 h at 37° C., 10% CO2 • aspirate medium 50 uL add calcium dye 1×HBSS/HEPES buffer • incubate 1 h at 37° C. (“loading”) • equilibrate 10 min at RT 5 uL add compounds in HEPES buffer • shake 10 sec. at 1000 rpm • incubate 15 min at RT 20 uL add LPA (in the FLIPR Tetra) in Krebs-buffer/BSA & measurement
The cells are seeded in DMEM buffer (DMEM, 10% FCS, 10 mM HEPES, 1% Pen/Strep).
Dye loading is done in HBSS/HEPES buffer (100 mL 10×HBSS+20 mL 1M HEPES+880 mL water, pH 7.4)
The LPA is added in Krebs/BSA buffer (120 mM NaCl, 5 mM KCl, 0.62 mM MgSO4, 1.8 mM CaCl2, 10 mM HEPES, 6 mM D(+)-Glucose, 0.2% BSA, pH 7.4).
The compounds are pre-diluted in HEPES buffer (20 mM, pH 7.4), whereby the final DMSO content in the assay is kept at 1%. The compounds are pre-diluted in order to generate dose response series on the microplates. The dose response series consist of 10 concentrations for each compound from 30 uM final to 1 nM final. From all compound wells the resulting signals are referred to control wells (located on each plate besides the compound wells) in terms of % activity.
From these % activity values—along with the corresponding compound concentrations—IC50 values are fitted for each compound using standard fitting programs such as Graphpad Prism. Here the method “log(inhibitor) vs. response—Variable slope” is used.
In general terms: Calcium flux is commonly read through the fluorescence of an indicator in the cells.

T1 sequence (Q9HBW0 whole entry): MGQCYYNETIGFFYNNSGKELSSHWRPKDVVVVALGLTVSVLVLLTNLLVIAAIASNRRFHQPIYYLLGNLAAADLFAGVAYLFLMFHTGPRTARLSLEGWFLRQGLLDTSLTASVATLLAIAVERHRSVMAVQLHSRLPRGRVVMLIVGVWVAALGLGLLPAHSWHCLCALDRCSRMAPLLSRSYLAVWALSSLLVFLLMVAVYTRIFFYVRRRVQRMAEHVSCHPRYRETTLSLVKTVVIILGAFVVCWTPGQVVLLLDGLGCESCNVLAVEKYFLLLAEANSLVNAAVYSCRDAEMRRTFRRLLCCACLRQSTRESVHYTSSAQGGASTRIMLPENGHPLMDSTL

For orientation: IC50 means the concentration at which inhibition is half-maximal. As to `O=C(O)c1ccc2[nH]c(NC(=O)C3CC3c3ccccc3)nc2c1` (racemic) [2-[(2-Phenyl-cyclopropane-carbonyl)-amino]-1H-benzoimidazole-5-carboxylic acid], the IC50 is more than 10000 nM.

`N#Cc1ccc2nc(NC(=O)C3CC3c3ccccc3Cl)[nH]c2c1` (racemic) [2-(2-Chloro-phenyl)-cyclopropane-carboxylic acid (6-cyano-1H-benzoimidazol-2-yl)-amide]: the IC50 was 10 to 100 nM. Consider `N#Cc1ccc2nc(NC(=O)C3CC3c3cccc(F)c3)[nH]c2c1` (racemic) [2-(3-Fluoro-phenyl)-cyclopropane-carboxylic acid (6-cyano-1H-benzoimidazol-2-yl)-amide], for which the IC50 was less than 10 nM.

For `O=C(Nc1nc2ccccc2[nH]1)C1CC1c1ccccc1F` (racemic) [2-(2-Fluoro-phenyl)-cyclopropane-carboxylic acid (1H-benzoimidazol-2-yl)-amide], the IC50 was in the range of 100 to 1000 nM. As for `N#Cc1ccc2nc(NC(=O)C3C(c4ccccc4)C3(F)F)[nH]c2c1` (racemic) [2,2-Difluoro-3-phenyl-cyclopropane-carboxylic acid (6-cyano-1H-benzoimidazol-2-yl)-amide], the figure is 100 to 1000 nM. `CN(C(=O)C1CC1c1ccccc1)c1nc2ccccc2[nH]1` (racemic) [2-Phenyl-cyclopropane-carboxylic acid (1H-benzoimidazol-2-yl)-methyl-amide]: the IC50 lay in the range of 1000 to 10000 nM. Next, `O=C(Nc1nc2ccc(Cl)cc2[nH]1)C1CC1c1ccccc1Cl` (single isomer, unassigned; enantiomer-2) [enantiomer-2-(2-Chloro-phenyl)-cyclopropane-carboxylic acid (6-chloro-1H-benzoimidazol-2-yl)-amide]: 100 to 1000 nM. Turning to `O=C(Nc1nc2ccnc(Cl)c2[nH]1)C1CC1c1ccccc1` (single isomer, unassigned; enantiomer-2) [enantiomer-2-Phenyl-cyclopropane-carboxylic acid (4-chloro-3H-imidazo[4,5-c]pyridin-2-yl)-amide], the 50% inhibitory concentration (IC50) was 10 to 100 nM. As for `O=C(Nc1nc2cc(OCCN3CCCC3)ccc2[nH]1)C1CC1c1ccccc1` (single isomer, unassigned; enantiomer-2) [enantiomer-2-Phenyl-cyclopropane-carboxylic acid [5-(2-pyrrolidin-1-yl-ethoxy)-1H-benzoimidazol-2-yl]-amide], the figure is 1000 to 10000 nM. `CC(C)(C)c1ccc(C2CC2C(=O)Nc2nc3ccccc3[nH]2)cc1` (racemic) [2-(4-tert-Butyl-phenyl)-cyclopropane-carboxylic acid (1H-benzoimidazol-2-yl)-amide]: the IC50 is more than 10000 nM. Next, `O=C(Nc1nc2cc(C(F)(F)F)ccc2[nH]1)C1CC1c1ccccc1` (racemic) [2-Phenyl-cyclopropane-carboxylic acid (6-trifluoromethyl-1H-benzoimidazol-2-yl)-amide]: 10 to 100 nM; `O=C(OCc1ccccc1)C1CCN(CNc2cccc3[nH]c(NC(=O)C4CC4c4ccccc4)nc23)C1` (racemic) [1-({2-[(2-Phenyl-cyclopropane-carbonyl)-amino]-1H-benzoimidazol-4-ylamino)-methyl)-pyrrolidine-3-carboxylic acid benzyl ester]: 1000 to 10000 nM; `COc1cccc(C2CC2C(=O)Nc2nc3ccccc3[nH]2)c1` (racemic) [2-(3-Methoxy-phenyl)-cyclopropane-carboxylic acid (1H-benzoimidazol-2-yl)-amide]: more than 10000 nM.

For the compound `O=C(Nc1nc2c([N+](=O)[O-])cccc2[nH]1)C1CC1c1ccccc1` (racemic) [2-Phenyl-cyclopropane-carboxylic acid (4-nitro-1H-benzoimidazol-2-yl)-amide], the IC50 lay within 10 to 100 nM. Next, `COC(=O)c1cccc2nc(NC(=O)C3CC3c3ccccc3Cl)[nH]c12` (single isomer, unassigned; enantiomer-2) [enantiomer-2-{[2-(2-Chloro-phenyl)-cyclopropane-carbonyl]-amino}-3H-benzoimidazole-4-carboxylic acid methyl ester]: more than 10000 nM. Take `O=C(Nc1nc2ccccc2[nH]1)C1CC1c1cccc([N+](=O)[O-])c1` (racemic) [2-(3-Nitro-phenyl)-cyclopropane-carboxylic acid (1H-benzoimidazol-2-yl)-amide]: the IC50 was 10 to 100 nM. As to `O=C(Nc1nc2c([N+](=O)[O-])cc(C(F)(F)F)cc2[nH]1)C1CC1c1ccccc1` (racemic) [2-Phenyl-cyclopropane-carboxylic acid (4-nitro-6-trifluoromethyl-1H-benzoimidazol-2-yl)-amide], the IC50 is 100 to 1000 nM. With `COC(=O)c1cccc2[nH]c(NC(=O)C3CC3c3ccccc3)nc12` (racemic) [2-[(2-Phenyl-cyclopropane-carbonyl)-amino]-1H-benzoimidazole-4-carboxylic acid methyl ester], the IC50 is 100 to 1000 nM. Consider `N#Cc1ccc2nc(NC(=O)C3CC3c3ccccc3)[nH]c2c1` (single isomer, unassigned; enantiomer-2) [drawing 71, enantiomer-2-Phenyl-cyclopropane-carboxylic acid (6-cyano-1H-benzoimidazol-2-yl)-amide], for which the IC50 lay in the range of 10 to 100 nM. As for `CCc1ccc2[nH]c(NC(=O)C3CC3c3ccccc3)nc2c1` (racemic) [2-Phenyl-cyclopropane-carboxylic acid (5-ethyl-1H-benzoimidazol-2-yl)-amide], the IC50 is 10 to 100 nM. `O=C(Nc1nc2ccccc2[nH]1)C1CC1c1cccc(Cl)c1` (racemic) [2-(3-Chloro-phenyl)-cyclopropane-carboxylic acid (1H-benzoimidazol-2-yl)-amide]: the IC50 lay in the range of 100 to 1000 nM. On to `O=C(Nc1nc2ccc(C(F)(F)F)cc2[nH]1)C1CC1c1ccccc1Cl` (racemic) [2-(2-Chloro-phenyl)-cyclopropane-carboxylic acid (6-trifluoromethyl-1H-benzoimidazol-2-yl)-amide], for which the IC50 lay within 10 to 100 nM. Turning to `O=C(Nc1nc2ccccc2[nH]1)C1CC1c1ccccc1C(F)(F)F` (racemic) [2-(2-Trifluoromethyl-phenyl)-cyclopropane-carboxylic acid (1H-benzoimidazol-2-yl)-amide], the half-maximal inhibitory concentration (IC50) is more than 10000 nM. As to `O=C(Nc1nc2cc(Cl)cnc2[nH]1)[C@@H]1C[C@H]1c1ccccc1` (single isomer, unassigned) [trans-2-Phenyl-cyclopropane-carboxylic acid (6-chloro-3H-imidazo[4,5-b]pyridin-2-yl)-amide], the IC50 was 1000 to 10000 nM.

Regarding `O=C(Nc1nc2ccccc2[nH]1)C1CC1c1ccccc1` (single isomer, unassigned; enantiomer-2) [drawing 59, enantiomer-2-Phenyl-cyclopropane-carboxylic acid (1H-benzoimidazol-2-yl)-amide], the IC50 is less than 10 nM. As for `Cn1c(NC(=O)C2CC2c2ccccc2)nc2ccccc21` (racemic) [2-Phenyl-cyclopropane-carboxylic acid (1-methyl-1H-benzoimidazol-2-yl)-amide], the figure is more than 10000 nM. In the case of `O=C(Nc1nc2ccnc(Cl)c2[nH]1)C1CC1c1ccccc1` (racemic) [2-Phenyl-cyclopropane-carboxylic acid (4-chloro-3H-imidazo[4,5-c]pyridin-2-yl)-amide], the IC50 is 10 to 100 nM. As for `CN(C)c1ccccc1C1CC1C(=O)Nc1nc2ccccc2[nH]1` (racemic) [2-(2-Dimethylamino-phenyl)-cyclopropane-carboxylic acid (1H-benzoimidazol-2-yl)-amide], the figure is 100 to 1000 nM.
